Data as given in US12370192B2, “Azole-fused pyridazin-3(2H)-one derivatives” (TAKEDA PHARMACEUTICAL COMPANY LIMITED, priority 2019, dated 2025).

Experiments:
[1] = biological target: T1, human GPR139 receptor (Homo sapiens, UniProt Q6DWJ6); assay: GPR139 Competition Binding (membrane-based, tritium-labeled ligand); details: T-REx-CHO membranes with human GPR139; 6.5 nM tritium-labeled ligand; 11-point curve, 30 μM maximum concentration; read-out: GPR139 Binding Affinity (pKi) (converted)
T1 construct: expressed in transfected cells; host or cells: T-REx-CHO (Thermo Fisher Scientific), doxycycline-induced
T1 sequence (Q6DWJ6 1-353): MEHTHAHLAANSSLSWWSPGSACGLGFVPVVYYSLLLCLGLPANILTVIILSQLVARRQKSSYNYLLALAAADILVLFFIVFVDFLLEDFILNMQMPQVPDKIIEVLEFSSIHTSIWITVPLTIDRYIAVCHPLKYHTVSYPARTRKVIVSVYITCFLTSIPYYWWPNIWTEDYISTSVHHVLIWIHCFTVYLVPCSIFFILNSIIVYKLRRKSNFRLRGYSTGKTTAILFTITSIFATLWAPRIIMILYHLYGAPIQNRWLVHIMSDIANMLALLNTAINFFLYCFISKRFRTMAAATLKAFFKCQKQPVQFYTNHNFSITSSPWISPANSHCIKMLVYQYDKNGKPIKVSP
In short: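 Membranes came from doxycycline-induced T-REx-CHO cells expressing human GPR139. They were incubated 20 min at room temperature with 6.5 nM tritiated ligand and compound (11 points, top 30 μM) in HEPES pH 7.3 buffer with MgCl2/CaCl2. Filter-bound counts gave Ki by four-parameter fit, reported as pKi.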

[2] = biological target: T1, human GPR139 receptor; assay: Measurement of GPR139 Activation Via Calcium Signaling (FLIPR, T-REx-CHO cells); assay type: cell-based; details: T-REx-CHO cells stably expressing human GPR139, 11-point dose response, 10 μM maximum concentration, read-out: GPR139 Potency (pEC50) (converted)
In short: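 Calcium flux read by FLIPR for 1 min after adding compounds (11 concentrations, maximum 10 μM) to doxycycline-induced (2 μg/mL, 17 h) T-REx-CHO cells expressing human GPR139. Cells dye-loaded 40 min at 37 °C in HBSS, 1 mM HEPES pH 7.4 with probenecid; activation reported as pEC50 from four-parameter logistic fit.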

Molecule `Cc1ccc([C@H](C)NC(=O)Cn2ncc3c(cnn3C(C)C)c2=O)c(F)c1` [Example 88, (S)—N-(1-(2-fluoro-4-methylphenyl)ethyl)-2-(1-isopropyl-4-oxo-1,4-dihydro-5H-pyrazolo[3,4-d]pyridazin-5-yl)acetamide] has a Ki [1] of 676 nM and an EC50 [2] of 77.6 nM.
In the case of `Cc1ccc([C@H](C)NC(=O)Cn2ncc3c(cnn3C(C)C)c2=O)cc1` [Example 89, (S)-2-(1-isopropyl-4-oxo-1,4-dihydro-5H-pyrazolo[3,4-d]pyridazin-5-yl)-N-(1-(p-tolyl)ethyl)acetamide], the Ki [1] is reported as 2190 nM and the EC50 [2] is reported as 44.7 nM.
`Cc1ccc([C@H](C)NC(=O)Cn2ncc3c(c(C)nn3C(C)C)c2=O)c(F)c1` [Example 92, (S)—N-(1-(2-fluoro-4-methylphenyl)ethyl)-2-(1-isopropyl-3-methyl-4-oxo-1,4-dihydro-5H-pyrazolo[3,4-d]pyridazin-5-yl)acetamide] showed a Ki [1] of 100 nM and an EC50 [2] of 57.5 nM.
`Cc1nn(C(C)C)c2cnn(CC(=O)N[C@@H](C)c3ccc(OC(F)(F)F)cc3)c(=O)c12` [Example 93, (S)-2-(1-isopropyl-3-methyl-4-oxo-1,4-dihydro-5H-pyrazolo[3,4-d]pyridazin-5-yl)-N-(1-(4-(trifluoromethoxy)phenyl)ethyl)acetamide] was tested, and the Ki [1] was 389 nM and the EC50 [2] was 234 nM.
Molecule `Cc1nn(C(C)C)c2cnn(CC(=O)N[C@@H](C)c3ccc(C(F)(F)F)cc3)c(=O)c12` [Example 94, (S)-2-(1-isopropyl-3-methyl-4-oxo-1,4-dihydro-5H-pyrazolo[3,4-d]pyridazin-5-yl)-N-(1-(4-(trifluoromethyl)phenyl)ethyl)acetamide] has a Ki [1] of 309 nM and an EC50 [2] of 107 nM.
With `Cc1ccc([C@H](C)NC(=O)Cn2ncc3c(c(C)nn3C)c2=O)c(F)c1` [Example 99] the Ki [1] was 95.5 nM and the EC50 [2] was 123 nM.
`Cc1nn(CC(=O)N[C@@H](C)c2ccc(C(F)(F)F)cn2)c(=O)c2c1c(C)nn2C1CC1` [Example 101, (S)-2-(1-cyclopropyl-3,4-dimethyl-7-oxo-1,7-dihydro-6H-pyrazolo[3,4-d]pyridazin-6-yl)-N-(1-(5-(trifluoromethyl)pyridin-2-yl)ethyl)acetamide] showed a Ki [1] of 282 nM and an EC50 [2] of 398 nM.
`Cc1nn(CC(=O)N[C@@H](C)c2ccc(C(F)(F)F)cn2)c(=O)c2c1c(C)nn2C` [Example 102, (S)—N-(1-(5-(trifluoromethyl)pyridin-2-yl)ethyl)-2-(1,3,4-trimethyl-7-oxo-1,7-dihydro-6H-pyrazolo[3,4-d]pyridazin-6-yl)acetamide] was tested, and the Ki [1] was 15100 nM and the EC50 [2] was 209 nM.
For `Cc1nn(C(C)C)c2c(=O)n(CC(=O)N[C@@H](C)c3ccc(C(F)(F)F)cn3)ncc12` [Example 103, (S)-2-(1-isopropyl-3-methyl-7-oxo-1,7-dihydro-6H-pyrazolo[3,4-d]pyridazin-6-yl)-N-(1-(5-(trifluoromethyl)pyridin-2-yl)ethyl)acetamide], the Ki [1] was 10000 nM and the EC50 [2] was 219 nM.
For `Cc1nn(C2CC2)c2cnn(CC(=O)NC(C)c3ccc4c(c3)CCCO4)c(=O)c12` (stereo not shown) [Example 104, N-(1-(chroman-6-yl)ethyl)-2-(1-cyclopropyl-3-methyl-4-oxo-1,4-dihydro-5H-pyrazolo[3,4-d]pyridazin-5-yl)acetamide], the Ki [1] was 794 nM and the EC50 [2] was 61.7 nM.
Work on `Cc1nn(CC(=O)NC(C)c2ccc3c(c2)OCCO3)c(=O)c2c1c(C)nn2C1CC1` (stereo not shown) [Example 105, 2-(1-cyclopropyl-3,4-dimethyl-7-oxo-1,7-dihydro-6H-pyrazolo[3,4-d]pyridazin-6-yl)-N-(1-(2,3-dihydrobenzo[b][1,4]dioxin-6-yl)ethyl)acetamide] yielded a Ki [1] of 97.7 nM and an EC50 [2] of 107 nM.
With `Cc1nn(C2CC2)c2cnn(CC(=O)NC(C)c3ccc4c(c3)OCCO4)c(=O)c12` (stereo not shown) [Example 106, 2-(1-cyclopropyl-3-methyl-4-oxo-1,4-dihydro-5H-pyrazolo[3,4-d]pyridazin-5-yl)-N-(1-(2,3-dihydrobenzo[b][1,4]dioxin-6-yl)ethyl)acetamide] the Ki [1] was 2000 nM and the EC50 [2] was 57.5 nM.
`Cc1nn(C2CC2)c2cnn(CC(=O)N[C@@H](C)c3ccc(C(F)(F)F)cc3)c(=O)c12` [Example 107, (S)-2-(1-cyclopropyl-3-methyl-4-oxo-1,4-dihydro-5H-pyrazolo[3,4-d]pyridazin-5-yl)-N-(1-(4-(trifluoromethyl)phenyl)ethyl)acetamide] showed a Ki [1] of 245 nM and an EC50 [2] of 42.7 nM.
With `Cc1ccc([C@H](C)NC(=O)Cn2ncc3c(c(C)nn3C3CC3)c2=O)c(F)c1` [Example 108, (S)-2-(1-cyclopropyl-3-methyl-4-oxo-1,4-dihydro-5H-pyrazolo[3,4-d]pyridazin-5-yl)-N-(1-(2-fluoro-4-methylphenyl)ethyl)acetamide] the Ki [1] was 75.9 nM and the EC50 [2] was 34.7 nM.
Molecule `COc1ccc([C@H](C)NC(=O)Cn2ncc3c(c(C)nn3C3CC3)c2=O)cc1` [Example 110, (S)-2-(1-cyclopropyl-3-methyl-4-oxo-1,4-dihydro-5H-pyrazolo[3,4-d]pyridazin-5-yl)-N-(1-(4-methoxyphenyl)ethyl)acetamide] has a Ki [1] of 1660 nM and an EC50 [2] of 69.2 nM.
With `Cc1ccc([C@H](C)NC(=O)Cn2nc(C)c3c(c(C)nn3C)c2=O)c(F)c1` [Example 111, (S)—N-(1-(2-fluoro-4-methylphenyl)ethyl)-2-(1,3,7-trimethyl-4-oxo-1,4-dihydro-5H-pyrazolo[3,4-d]pyridazin-5-yl)acetamide] the Ki [1] was 42.7 nM and the EC50 [2] was 148 nM.
`Cc1nn(C)c2c(C)nn(CC(=O)N[C@@H](C)c3ccc(OC(F)(F)F)cc3)c(=O)c12` [Example 112, (S)—N-(1-(4-(trifluoromethoxy)phenyl)ethyl)-2-(1,3,7-trimethyl-4-oxo-1,4-dihydro-5H-pyrazolo[3,4-d]pyridazin-5-yl)acetamide] gave a Ki [1] of 263 nM and an EC50 [2] of 617 nM.
With `Cc1ccc([C@H](C)NC(=O)Cn2nc(C)c3c(c(C)nn3C)c2=O)cc1` [Example 113, (S)—N-(1-(p-tolyl)ethyl)-2-(1,3,7-trimethyl-4-oxo-1,4-dihydro-5H-pyrazolo[3,4-d]pyridazin-5-yl)acetamide] the Ki [1] was 178 nM and the EC50 [2] was 151 nM.
For `Cc1nn(C)c2c(C)nn(CC(=O)N[C@@H](C)c3ccc(C(F)(F)F)cc3)c(=O)c12` [Example 114, (S)—N-(1-(4-(trifluoromethyl)phenyl)ethyl)-2-(1,3,7-trimethyl-4-oxo-1,4-dihydro-5H-pyrazolo[3,4-d]pyridazin-5-yl)acetamide], the Ki [1] was 204 nM and the EC50 [2] was 132 nM.
`C[C@H](NC(=O)Cn1ncc2c(c(C3CC3)nn2C)c1=O)c1ccc(C(F)(F)F)cc1` [Example 115, (S)-2-(3-cyclopropyl-1-methyl-4-oxo-1,4-dihydro-5H-pyrazolo[3,4-d]pyridazin-5-yl)-N-(1-(4-(trifluoromethyl)phenyl)ethyl)acetamide] showed a Ki [1] of 58.9 nM and an EC50 [2] of 224 nM.
With `COc1ccc([C@H](C)NC(=O)Cn2ncc3c(c(C4CC4)nn3C)c2=O)cc1` [Example 116, (S)-2-(3-cyclopropyl-1-methyl-4-oxo-1,4-dihydro-5H-pyrazolo[3,4-d]pyridazin-5-yl)-N-(1-(4-methoxyphenyl)ethyl)acetamide] the Ki [1] was 339 nM and the EC50 [2] was 74.1 nM.
`Cc1ccc([C@H](C)NC(=O)Cn2nc(C)c3c(c(C4CC4)nn3C)c2=O)c(F)c1` [Example 117, (S)-2-(3-cyclopropyl-1,7-dimethyl-4-oxo-1,4-dihydro-5H-pyrazolo[3,4-d]pyridazin-5-yl)-N-(1-(2-fluoro-4-methylphenyl)ethyl)acetamide] was tested, and the Ki [1] was 2.09 nM and the EC50 [2] was 50.1 nM.
`Cc1nn(CC(=O)N[C@@H](C)c2ccc(OC(F)(F)F)cc2)c(=O)c2c(C3CC3)nn(C)c12` [Example 118, (S)-2-(3-cyclopropyl-1,7-dimethyl-4-oxo-1,4-dihydro-5H-pyrazolo[3,4-d]pyridazin-5-yl)-N-(1-(4-(trifluoromethoxy)phenyl)ethyl)acetamide] gave a Ki [1] of 23.4 nM and an EC50 [2] of 69.2 nM.
Molecule `Cc1ccc([C@H](C)NC(=O)Cn2nc(C)c3c(c(C4CC4)nn3C)c2=O)cc1` [Example 119, (S)-2-(3-cyclopropyl-1,7-dimethyl-4-oxo-1,4-dihydro-5H-pyrazolo[3,4-d]pyridazin-5-yl)-N-(1-(p-tolyl)ethyl)acetamide] has a Ki [1] of 7.94 nM and an EC50 [2] of 33.9 nM.
Work on `Cc1nn(CC(=O)N[C@@H](C)c2ccc(C(F)(F)F)cc2)c(=O)c2c(C3CC3)nn(C)c12` [Example 120, (S)-2-(3-cyclopropyl-1,7-dimethyl-4-oxo-1,4-dihydro-5H-pyrazolo[3,4-d]pyridazin-5-yl)-N-(1-(4-(trifluoromethyl)phenyl)ethyl)acetamide] yielded a Ki [1] of 17.4 nM and an EC50 [2] of 182 nM.
For `COc1ccc([C@H](C)NC(=O)Cn2nc(C)c3c(c(C4CC4)nn3C)c2=O)cc1` [Example 121, (S)-2-(3-cyclopropyl-1,7-dimethyl-4-oxo-1,4-dihydro-5H-pyrazolo[3,4-d]pyridazin-5-yl)-N-(1-(4-methoxyphenyl)ethyl)acetamide], the Ki [1] was 74.1 nM and the EC50 [2] was 129 nM.
